Measured values reported in PubChem BioAssay AID2060889 (Molecular Pharmacology Branch, DTP, NCI, 2025).

System: LG0567-F671-PDC complex spheroids viability
Test: Anticancer human tumor LG0567-F671-PDC patient-derived lung adenocarcinoma cell line growth inhibition [RAS]
Conditions: for IC50: curve of first compound; for viability, T/C: stronger effect = lower value
Outline: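 Tumour cells grown as complex spheroids with HUVEC endothelial cells and mesenchymal stem cells, treated with RAS pathway inhibitor combinations. Each agent spans half-log steps from near clinical Cmax, or 10 microM where Cmax is unknown.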

[1] = second compound 0.000949 µM, first compound 0.0316 µM
[2] = second compound 0.000949 µM, first compound 0.1 µM
[3] = second compound 0.000949 µM, first compound 0.316 µM
[4] = second compound 0.000949 µM, first compound 1 µM
[5] = second compound 0.000949 µM, first compound 3.16 µM
[6] = second compound 0.000949 µM, first compound 10 µM
[7] = second compound 0.003 µM, first compound 0.0316 µM
[8] = second compound 0.003 µM, first compound 0.1 µM
[9] = second compound 0.003 µM, first compound 0.316 µM
[10] = second compound 0.003 µM, first compound 1 µM
[11] = second compound 0.003 µM, first compound 3.16 µM
[12] = second compound 0.003 µM, first compound 10 µM
[13] = second compound 0.00949 µM, first compound 0.0316 µM
[14] = second compound 0.00949 µM, first compound 0.1 µM
[15] = second compound 0.00949 µM, first compound 0.316 µM
[16] = second compound 0.00949 µM, first compound 1 µM
[17] = second compound 0.00949 µM, first compound 3.16 µM
[18] = second compound 0.00949 µM, first compound 10 µM
[19] = second compound 0.03 µM, first compound 0.0316 µM
[20] = second compound 0.03 µM, first compound 0.1 µM
[21] = second compound 0.03 µM, first compound 0.316 µM
[22] = second compound 0.03 µM, first compound 1 µM
[23] = second compound 0.03 µM, first compound 3.16 µM
[24] = second compound 0.03 µM, first compound 10 µM
[25] = second compound 0.0949 µM, first compound 0.0316 µM
[26] = second compound 0.0949 µM, first compound 0.1 µM
[27] = second compound 0.0949 µM, first compound 0.316 µM
[28] = second compound 0.0949 µM, first compound 1 µM
[29] = second compound 0.0949 µM, first compound 3.16 µM
[30] = second compound 0.0949 µM, first compound 10 µM
[31] = second compound 0.3 µM, first compound 0.0316 µM
[32] = second compound 0.3 µM, first compound 0.1 µM
[33] = second compound 0.3 µM, first compound 0.316 µM
[34] = second compound 0.3 µM, first compound 1 µM
[35] = second compound 0.3 µM, first compound 3.16 µM
[36] = second compound 0.3 µM, first compound 10 µM
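Also: spheroids exposed to compound for seven days before readout.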
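For IC50 in this document: luminescence signal used as a proxy for viable cells.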

Question: Which results are given for `CC(C)NCC(C(=O)N1CCN(c2ncnc3c2C(C)CC3O)CC1)c1ccc(Cl)cc1` (stereo unspecified) + CCn1c(-c2cccnc2C(C)OC)c2c3cc(ccc31)N1CCOC(CC(NC(=O)C(C(C)C)N(C)C(=O)C3(F)CCN(C(=O)C#CC(C)(C)N(C)C)CC3)C(=O)N3CCCC(N3)C(=O)OCC(C)(C)C2)C1?
Answer: IC50 (second compound 0.000949 µM): < 31.6 nM; IC50 (second compound 0.003 µM): < 31.6 nM; IC50 (second compound 0.00949 µM): < 31.6 nM; IC50 (second compound 0.03 µM): < 31.6 nM; IC50 (second compound 0.0949 µM): < 31.6 nM; IC50 (second compound 0.3 µM): < 31.6 nM; viability, T/C [1]: 11.2%; viability, T/C [2]: 13.7%; viability, T/C [3]: 12.3%; viability, T/C [4]: 12.3%; viability, T/C [5]: 8.16%; viability, T/C [6]: 8.26%; viability, T/C [7]: 12.4%; viability, T/C [8]: 11.7%; viability, T/C [9]: 11.7%; viability, T/C [10]: 10.8%; viability, T/C [11]: 8.33%; viability, T/C [12]: 7.72%; viability, T/C [13]: 11%; viability, T/C [14]: 11.3%; viability, T/C [15]: 12.6%; viability, T/C [16]: 10.1%; viability, T/C [17]: 8.54%; viability, T/C [18]: 7.28%; viability, T/C [19]: 11.5%; viability, T/C [20]: 10.2%; viability, T/C [21]: 12.5%; viability, T/C [22]: 8.64%; viability, T/C [23]: 7.32%; viability, T/C [24]: 7.5%; viability, T/C [25]: 9.18%; viability, T/C [26]: 10.3%; viability, T/C [27]: 10.3%; viability, T/C [28]: 8.97%; viability, T/C [29]: 6.83%; viability, T/C [30]: 6.43%; viability, T/C [31]: 8.3%; viability, T/C [32]: 10.2%; viability, T/C [33]: 8.96%; viability, T/C [34]: 6.59%; viability, T/C [35]: 6.6%; viability, T/C [36]: 5.25%

Question: With `CC(Nc1ccc2c(c1)OCCn1cc(N3C(=O)OCC3C(F)F)nc1-2)C(N)=O` (stereo unspecified) + CCn1c(-c2cccnc2C(C)OC)c2c3cc(ccc31)N1CCOC(CC(NC(=O)C(C(C)C)N(C)C(=O)C3(F)CCN(C(=O)C#CC(C)(C)N(C)C)CC3)C(=O)N3CCCC(N3)C(=O)OCC(C)(C)C2)C1 as the compound, how does the IC50 (second compound 0.000949 µM) read?
Answer: The IC50 was < 31.6 nM.

Question: And the IC50 (second compound 0.003 µM)?
Answer: Its IC50 is < 31.6 nM.

Question: What about the IC50 (second compound 0.00949 µM) of the same compound?
Answer: The IC50 was < 31.6 nM.

Question: And the IC50 (second compound 0.03 µM)?
Answer: The IC50 was < 31.6 nM.

Question: What about the IC50 (second compound 0.0949 µM) of the same compound?
Answer: Its IC50 is < 31.6 nM.

Question: What about the IC50 (second compound 0.3 µM) of the same compound?
Answer: Its IC50 is < 31.6 nM.

Question: What about the viability, T/C [1] of the same compound?
Answer: Its viability, T/C is 10.7%.

Question: What about the viability, T/C [2] of the same compound?
Answer: Its viability, T/C is 8.72%.

Question: What about the viability, T/C [3] of the same compound?
Answer: Its viability, T/C is 8.3%.

Question: What about the viability, T/C [4] of the same compound?
Answer: Its viability, T/C is 7.21%.

Question: And the viability, T/C [5]?
Answer: The viability, T/C was 5.43%.

Question: What about the viability, T/C [6] of the same compound?
Answer: The viability, T/C was 4.31%.

Question: And the viability, T/C [7]?
Answer: Its viability, T/C is 9.17%.

Question: What about the viability, T/C [8] of the same compound?
Answer: Its viability, T/C is 8.19%.

Question: And the viability, T/C [9]?
Answer: Its viability, T/C is 7.67%.

Question: What about the viability, T/C [10] of the same compound?
Answer: The viability, T/C was 6.15%.

Question: And the viability, T/C [11]?
Answer: Its viability, T/C is 6.22%.

Question: What about the viability, T/C [12] of the same compound?
Answer: The viability, T/C was 4.37%.

Question: What about the viability, T/C [13] of the same compound?
Answer: Its viability, T/C is 9.41%.

Question: What about the viability, T/C [14] of the same compound?
Answer: Its viability, T/C is 8.93%.

Question: What about the viability, T/C [15] of the same compound?
Answer: The viability, T/C was 9.05%.

Question: And the viability, T/C [16]?
Answer: The viability, T/C was 6.09%.

Question: What about the viability, T/C [17] of the same compound?
Answer: The viability, T/C was 5.36%.

Question: What about the viability, T/C [18] of the same compound?
Answer: Its viability, T/C is 4.24%.

Question: And the viability, T/C [19]?
Answer: Its viability, T/C is 8.43%.

Question: And the viability, T/C [20]?
Answer: Its viability, T/C is 7.85%.

Question: And the viability, T/C [21]?
Answer: The viability, T/C was 6.83%.

Question: And the viability, T/C [22]?
Answer: Its viability, T/C is 5.59%.

Question: What about the viability, T/C [23] of the same compound?
Answer: Its viability, T/C is 4.63%.

Question: And the viability, T/C [24]?
Answer: Its viability, T/C is 3.89%.

Question: What about the viability, T/C [25] of the same compound?
Answer: Its viability, T/C is 7.47%.

Question: And the viability, T/C [26]?
Answer: The viability, T/C was 6.11%.

Question: What about the viability, T/C [27] of the same compound?
Answer: Its viability, T/C is 5.42%.

Question: What about the viability, T/C [28] of the same compound?
Answer: Its viability, T/C is 4.93%.

Question: And the viability, T/C [29]?
Answer: The viability, T/C was 3.8%.

Question: And the viability, T/C [30]?
Answer: The viability, T/C was 2.62%.

Question: And the viability, T/C [31]?
Answer: Its viability, T/C is 7.06%.

Question: What about the viability, T/C [32] of the same compound?
Answer: The viability, T/C was 4.74%.

Question: What about the viability, T/C [33] of the same compound?
Answer: Its viability, T/C is 5.86%.

Question: And the viability, T/C [34]?
Answer: Its viability, T/C is 3.71%.

Question: What about the viability, T/C [35] of the same compound?
Answer: Its viability, T/C is 2.8%.

Question: And the viability, T/C [36]?
Answer: Its viability, T/C is 1.69%.

Question: What does the source list for `O=C(c1ccc(F)c(F)c1Nc1ccc(I)cc1F)N1CC(O)([C@@H]2CCCCN2)C1` + CCn1c(-c2cccnc2C(C)OC)c2c3cc(ccc31)N1CCOC(CC(NC(=O)C(C(C)C)N(C)C(=O)C3(F)CCN(C(=O)C#CC(C)(C)N(C)C)CC3)C(=O)N3CCCC(N3)C(=O)OCC(C)(C)C2)C1?
Answer: IC50 (second compound 0.000949 µM): < 3.16 nM; IC50 (second compound 0.003 µM): < 3.16 nM; IC50 (second compound 0.00949 µM): < 3.16 nM; IC50 (second compound 0.03 µM): < 3.16 nM; IC50 (second compound 0.0949 µM): < 3.16 nM; IC50 (second compound 0.3 µM): < 3.16 nM; viability, T/C (second compound 0.000949 µM, first compound 0.00316 µM): 13.4%; viability, T/C (second compound 0.000949 µM, first compound 0.01 µM): 11.5%; viability, T/C [1]: 9.69%; viability, T/C [2]: 6.79%; viability, T/C [3]: 3.71%; viability, T/C [4]: 1.41%; viability, T/C (second compound 0.003 µM, first compound 0.00316 µM): 12.6%; viability, T/C (second compound 0.003 µM, first compound 0.01 µM): 11.1%; viability, T/C [7]: 9.13%; viability, T/C [8]: 7.29%; viability, T/C [9]: 3.35%; viability, T/C [10]: 1.31%; viability, T/C (second compound 0.00949 µM, first compound 0.00316 µM): 13.7%; viability, T/C (second compound 0.00949 µM, first compound 0.01 µM): 11.1%; viability, T/C [13]: 7.73%; viability, T/C [14]: 7.78%; viability, T/C [15]: 3.51%; viability, T/C [16]: 1.48%; viability, T/C (second compound 0.03 µM, first compound 0.00316 µM): 10.9%; viability, T/C (second compound 0.03 µM, first compound 0.01 µM): 10.1%; viability, T/C [19]: 7.96%; viability, T/C [20]: 5.76%; viability, T/C [21]: 3.19%; viability, T/C [22]: 1%; viability, T/C (second compound 0.0949 µM, first compound 0.00316 µM): 8.93%; viability, T/C (second compound 0.0949 µM, first compound 0.01 µM): 7.87%; viability, T/C [25]: 7.13%; viability, T/C [26]: 4.53%; viability, T/C [27]: 2.24%; viability, T/C [28]: 0.97%; viability, T/C (second compound 0.3 µM, first compound 0.00316 µM): 7.33%; viability, T/C (second compound 0.3 µM, first compound 0.01 µM): 7.35%; viability, T/C [31]: 5.27%; viability, T/C [32]: 3.14%; viability, T/C [33]: 1.96%; viability, T/C [34]: 0.65%
